{"source": "patent US6528042B1", "about": "“Compositions of flavonoids for use as cytoprotectants and methods of making and using them” (Galileo Laboratories, Inc., priority 1999, dated 2003)", "key": {"[1]": {"tested_on": "Oxidatively competent cells", "assay": "SYTOX cell death assay in oxidatively competent cells treated with antimycin A", "format": "cell-based", "conditions": "for cell death when tested individually: highest concentration tested", "protocol": "Oxidatively competent cells are prepared as described in Example 1. and Example 2.A and are seeded onto 96-well plates at 1×10^3/well or 2.5×10^3/well as passage 15. The cells are grown in DMEM with 10% FBS and 1.5 g/L sodium bicarbonate for 24 or 48 hours to reach 85% confluence. The cells are washed once with HBSS and then 100 μl of HBSS containing different concentration of AA (Sigma, Cat #A 8674) is added to the cells. AA is dissolved in DMSO to make a stock solution of 50 mM, then diluted with HBSS to 25, 12.5, 6.25, 3.125, and 1.56 μM for dose-response curves. The cells, with or without AA, are incubated at 37° C. in a 5% CO2 humidified incubator for 1 to 5 hours. The concentration of AA is chosen to induce 75% or 100% cell death as a screening dose to test the effect of agents to protect against AA- induced cell toxicity. The concentration of agents used for screening will be dependent upon the agents. Certain control groups contain 100 μl of HBSS only.\n(§1) SYTOX Green nucleic acid stain is a high-affinity nucleic acid stain that easily penetrates cells with a compromised plasma membrane but will not cross the membrane of live cells. The nucleic acids of dead cells fluoresce bright green at 524 nm when excited with the 488 nm spectral source or with any other 450-500 nm source. […] In the cell viability assay chemical ischemia is created in cells and then cells are incubated with the SYTOX dye. The compound antimycin is used to simulate ischemia at the same time as stimulating the cells with forskolin. […] The assay is performed on cells grown in 96-well format allowing high throughput screening of compounds.\n(§2) Compound(s) are mixed with the 1 μM SYTOX working solution and added to the washed cell culture wells. Fluorescence is measured at designated time points (488 nm excitation and 530 nm emission). All of the sample readings subtract the background readings, which is cell-free wells only containing HBSS buffer with SYTOX green dye. The data is compared to non-treated cells (control) and is expressed as mean±S.D. from 4 culture wells. SYTOX Green fluorescence units obtained from each group are corrected for basal fluorescence (cell-free wells with only HBSS and fluorescence reagent). Data are represented as mean±SD. A paired t-test is performed comparing treated groups (Toxin+Agent) with non-treated groups (Toxin only) after subtracting the control groups (HBSS only) for each data set. Comparisons among groups are statistically evaluated by two-tailed t-test (Graphpad Prism Software, version 2.0). Differences are considered significant at P<0.05.\nOxidatively competent cells were treated simultaneously with hesperetin, chrysin and 100 nM antimycin A2.C. The cells were treated with various low concentrations of hesperetin and various concentrations of chrysin (Sigma Chemical Co., cat. #C3018). Hesperetin, chrysin and antimycin A were mixed together before treating the cells. Cell viability was measured at time points up to 5 hours using SYTOX, as described in Example 2.F.\nIn experiments carried out in support of the invention, various concentrations of diosmin and alpha-tocopherol were tested for synergistic ability to ameliorate disruption of energy metabolism secondary to stress. Oxidatively competent cells were treated simultaneously with diosmin, alpha-tocopherol and antimycin A2.C. The cells were treated with various low concentrations of diosmin (Sigma Chemical Co., cat. #D3525) and various low concentrations of (+/−) alpha-tocopherol. Diosmin, alpha-tocopherol and antimycin were mixed together before treating cells. Cell viability was measured 4 hours after treatment using SYTOX. […] Likewise, the combination of disomin (11-100 μM) with 1.1 μg/ml (+/−) alpha tocopherol was synergistic. […] Diosmin alone provided no protection at a concentration of 100 μM. […] A combination of 100 μM diosmin and 11 μg/ml (+/−) alpha tocopherol was also synergistic. […]"}, "[2]": {"conditions": "cited from earlier work; for abnormalities observed for a week: administered orally to mice at 100 mg/kg (U.S. Pat. No. 5,650,433)"}, "GCL1 cells": {"tested_on": "GCL1 cells", "assay": "SYTOX cell death assay in GCL1 cells treated with antimycin A (chemical ischemia)", "format": "cell-based, rat hepatoma cells (fao) / human fibroblasts (W138) hybrid", "conditions": "for reduction in cell death: control 82.9%", "description": "At greater than 80% confluence, more than 80% of the cells participate in forming one or more phaselucent, spherical structures that are located between cells, termed bile canicular-like spaces. In contrast to the majority of cell lines maintained in culture which are fermentative, GCL1 cells, when at their maximal density and polarity, are highly oxidative (i.e., they can be readily killed by inhibitors of oxidative phosphorylation or electron transport uncouplers). […] These cells are amenable to use in high throughput screening (HTS) technology.\nThe cells, with or without AA, are incubated at 37° C. in a 5% CO2 humidified incubator for 1 to 5 hours. […] The concentration of agents used for screening will be dependent upon the agents. Certain control groups contain 100 μl of HBSS only.\nas §1\nAliquot at 100 μl. This 10 mM stock is then diluted to 1 mM with DMSO and aliquoted at 25 μL. Both the 10 mM and the 1 mM are stored at −20° C. until use. […] Aliquot at 100 μl and store at −20° C. until use. iv.) HBSS-SYTOX-FORSKOLIN-ANTIMYCIN (H-S-F-A) solution: H-S-F-A solution is made up fresh prior to each assay in sterile 175 ml or 225 ml Falcon bottles. […]\nCells are grown in 96-well black plates (with or without clear bottoms) at a density of 1000 cells per well for 24 hours. The necessary number of 96-well plates containing the specific cell type are obtained and placed in the laminar flow safety cabinet. A sterile microtiter basin is filled with the appropriate volume of pre-warmed 1×HBSS. Using aseptic technique and an 8-channel aspirator, the media is carefully removed from the cells and replaced with 200 μl of 1×HBSS. This is done as quickly as possible to prevent the cells drying out. The plates are then placed in the humidified 37° C. incubators of the Biomek 2000 Side Loader. Four plates are washed at a time so as to minimize the time that the cells are sitting in 1×HBSS prior to addition of the H-S-A-compound test solution.\nas §2\nHesperetin, diosmin, luteolin and quercetin were tested individually for their ability to counteract disruptions of normal energy metabolism. Flavonoids were commercially obtained, generally from Sigma Chemical Co., St. Louis, Mo., and/or Aldrich Chemical Co., Milwaukee, Wis."}, "[3]": {"conditions": "flavonoid 25 μM, antimycin A 100 nM, 4 hours"}, "[4]": {"conditions": "flavonoid 50 μM, antimycin A 100 nM, 4 hours"}, "[5]": {"conditions": "flavonoid 100 μM, antimycin A 100 nM, 4 hours"}, "[6]": {"conditions": "flavonoid 200 μM, antimycin A 100 nM, 4 hours"}, "[7]": {"conditions": "flavonoid 400 μM, antimycin A 100 nM, 4 hours"}}}
{"smiles": "COc1ccc(-c2coc3cc(O)cc(O)c3c2=O)cc1", "note": "[biochanin A, 5,7-dihydroxy-4′-methoxyiso-flavone]", "values": [{"measurement": "cell death when tested individually", "setting": "[1]", "value": "about half of the cells died"}]}
{"smiles": "O=c1cc(-c2ccc(O)c(O)c2)oc2cc(O)cc(O)c12", "note": "[Luteolin, 2-(3,4-Dihydroxyphenyl)-5,7-dihydroxy-4H-1-benzopyran-4-one]", "values": [{"measurement": "abnormalities observed for a week", "setting": "[2]", "value": "the same results were reported"}, {"measurement": "cytoprotective activity", "setting": "GCL1 cells; concentrations of about 60 μM and above", "value": "exhibited cytoprotective activity"}, {"measurement": "Cell Death", "setting": "GCL1 cells; flavonoid 15.6 μM, antimycin A 100 nM, 4 hours", "value": "78.0% ± 0.9"}, {"measurement": "Cell Death", "setting": "GCL1 cells; flavonoid 31.25 μM, antimycin A 100 nM, 4 hours", "value": "74.5% ± 1.2"}, {"measurement": "Cell Death", "setting": "GCL1 cells; flavonoid 62.5 μM, antimycin A 100 nM, 4 hours", "value": "69.0% ± 2.2"}, {"measurement": "Cell Death", "setting": "GCL1 cells; flavonoid 125 μM, antimycin A 100 nM, 4 hours", "value": "53.7% ± 5.4"}, {"measurement": "Cell Death", "setting": "GCL1 cells; flavonoid 250 μM, antimycin A 100 nM, 4 hours", "value": "33.4% ± 0.6"}]}
{"smiles": "O=c1cc(-c2ccccc2)oc2cc(O)cc(O)c12", "note": "[chrysin, 5,7-dihydroxy-2-phenyl-4H-1-benzopyran-4-one]", "values": [{"measurement": "Cell Death", "setting": "[1]; 60 μM chrysin alone, control 72.9%", "value": 50.1, "unit": "%"}]}
{"smiles": "Cc1c(O)cc2c(c1C)O[C@](C)(CCC[C@H](C)CCC[C@H](C)CCCC(C)C)CC2", "note": "[gamma-tocopherol, 3,4-dihydro-2,7,8-trimethyl-2-(4,8,12-trimethyltridecyl)-2H-1-benzyopyran-6-ol]", "values": [{"measurement": "protection", "setting": "[1]; gamma-tocopherol 0.03-0.3 μg/ml by itself", "value": "not protective by itself"}]}
{"smiles": "O=C(CO)[C@H](O)[C@H](O)CO", "note": "[ribulose]", "values": [{"measurement": "reduction in cell death", "setting": "GCL1 cells; 1.25 mM ribulose by itself, 4 hours", "value": 4.4, "unit": "%"}, {"measurement": "reduction in cell death", "setting": "GCL1 cells; 10 mM ribulose alone, 4 hours", "value": 26.5, "unit": "%"}]}
{"smiles": "O=c1c(O)c(-c2ccc(O)c(O)c2)oc2cc(O)cc(O)c12", "note": "[Quercetin, 2-(3,4-Dihydroxyphenyl)-3,5,7-trihydroxy-4H-1-benzopyran-4-one]", "values": [{"measurement": "protective activity", "setting": "GCL1 cells; concentrations of 25 μM and above", "value": "protective activity is apparent"}, {"measurement": "Cell Death", "setting": "GCL1 cells; [3]", "value": "68.1% ± 1.7"}, {"measurement": "Cell Death", "setting": "GCL1 cells; [4]", "value": "57.1% ± 2.4"}, {"measurement": "Cell Death", "setting": "GCL1 cells; [5]", "value": "22.0% ± 2.2"}, {"measurement": "Cell Death", "setting": "GCL1 cells; [6]", "value": "0.0% ± 0.9"}, {"measurement": "Cell Death", "setting": "GCL1 cells; [7]", "value": "1.0% ± 0.5"}]}
{"smiles": "Cc1c(C)c2c(c(C)c1O)CC[C@@](C)(CCC[C@H](C)CCC[C@H](C)CCCC(C)C)O2", "note": "(relative stereo) [alpha-tocopherol, [2R-2R*(4R*,8R*)]-3,4-dihydro-2,5,7,8-tetramethyl-2-(4,8,12-trimethyltridecyl)-2H-1-benzopyran-6-ol]", "values": [{"measurement": "cell death when tested individually", "setting": "[1]", "value": "about half of the cells died"}]}
{"smiles": "COc1ccc([C@@H]2CC(=O)c3c(O)cc(O[C@@H]4O[C@H](CO[C@@H]5O[C@@H](C)[C@H](O)[C@@H](O)[C@H]5O)[C@@H](O)[C@H](O)[C@H]4O)cc3O2)cc1O", "note": "[hesperidin, (S)-7-[[6O-(6-Deoxy-α-L-mannopyranosyl)-β-D-glucopyranosyl]oxy]-2,3-dihydro-5-hydroxy-2-(3-hydroxy-4-methoxyphenyl)-4H-1-benzopyran-4-one]", "values": [{"measurement": "abnormalities observed for a week", "setting": "[2]", "value": "the same results were reported"}, {"measurement": "toxicity", "setting": "[2]; orally administered to a mouse at 1000 mg/kg (U.S. Pat. No. 5,763,414)", "value": "no toxicity"}, {"measurement": "effects on liver function", "setting": "[2]; tests using mice", "value": "no adverse effects on liver function"}, {"measurement": "toxicity or mitogenicity", "setting": "[2]; tests using mice", "value": "little toxicity or mitogenicity"}]}
{"smiles": "NCC(=O)O", "note": "[glycine, aminoacetic acid]", "values": [{"measurement": "protection", "setting": "GCL1 cells; 100 μM glycine alone, 4 hours, control cell death 82.1%", "value": 40.8, "unit": "%"}]}
{"smiles": "C[N+](C)(C)CC(O)CC(=O)[O-].O=C(O)C(O)C(O)C(=O)O", "note": "(centres unmarked) [carnitine tartate, carnitine tartrate]", "values": [{"measurement": "Cell Death", "setting": "GCL1 cells; 10 mM carnitine tartrate alone, 4 hours, control 97.4%", "value": 59.5, "unit": "%"}]}
{"smiles": "Nc1ncnc2c1ncn2[C@@H]1O[C@H](CO)[C@@H](O)[C@H]1O", "note": "[adenosine, 9-β-D-ribofuranosyl-9H-purin-6-amine]", "values": [{"measurement": "protection", "setting": "GCL1 cells; 11 μM adenosine alone", "value": 17.9, "unit": "%"}]}
{"smiles": "O=c1c(-c2ccc(O)cc2)coc2cc(O)ccc12", "note": "[daidzein, 7-hydroxy-3-(4-hydroxyphenyl)-4H-1-benzopyran-4-one]", "values": [{"measurement": "cell death when tested individually", "setting": "[1]", "value": "over half of the cells died"}]}
{"smiles": "Cc1c(C)c2c(c(C)c1O)CCC(C)(CCCC(C)CCCC(C)CCCC(C)C)O2", "note": "(racemic) [(+/−) alpha-tocopherol, 2,5,7,8-tetramethyl-2-(4′,8′,12′-trimethyltridecyl)-6-chromanol]", "values": [{"measurement": "protection", "setting": "[1]; 10 μg/ml (+/−) alpha-tocopherol by itself", "value": "about 15%"}, {"measurement": "cell death when tested individually", "setting": "[1]", "value": "over half of the cells died"}]}
{"smiles": "COc1ccc(-c2cc(=O)c3c(O)cc(O[C@@H]4O[C@H](CO[C@@H]5O[C@@H](C)[C@H](O)[C@@H](O)[C@H]5O)[C@@H](O)[C@H](O)[C@H]4O)cc3o2)cc1O", "note": "[Diosmin, reference compound]", "values": [{"measurement": "protection", "setting": "[1]; diosmin 3.3-100 μM by itself, 4 hours", "value": "not protective by itself"}, {"measurement": "protection", "setting": "[1]; diosmin alone 100 μM", "value": "no protection"}, {"measurement": "protection", "setting": "[1]; diosmin by itself 33-100 μM", "value": "not effective"}, {"measurement": "protective effect", "setting": "GCL1 cells; concentrations less than 400 μM", "value": "ineffective"}, {"measurement": "Cell Death", "setting": "GCL1 cells; [3]", "value": "84.1% ± 1.6"}, {"measurement": "Cell Death", "setting": "GCL1 cells; [4]", "value": "84.9% ± 1.6"}, {"measurement": "Cell Death", "setting": "GCL1 cells; [5]", "value": "85.3% ± 0.6"}, {"measurement": "Cell Death", "setting": "GCL1 cells; [6]", "value": "85.2% ± 2.0"}, {"measurement": "Cell Death", "setting": "GCL1 cells; [7]", "value": "82.5% ± 2.6"}]}
